Our source for the Activity and Ratio values is ChEMBL document CHEMBL1137581, “Synthesis of 1-deoxy-1-hydroxymethyl- and 1-deoxy-1-epi-hydroxymethyl castanospermine as new potential immunomodulating agents” (2007).

Calls of active or inactive are those of the source. The rule behind the calls is not given here. Where only a bound is given, the exact number is not on record here.

The target in test [1] is Mannosyl-oligosaccharide 1,2-alpha-mannosidase IA (Homo sapiens) (UniProt P33908). As to the kind of experiment: Inhibition of human alpha mannosidase.
Sequence of Mannosyl-oligosaccharide 1,2-alpha-mannosidase IA (Homo sapiens) (P33908 whole entry): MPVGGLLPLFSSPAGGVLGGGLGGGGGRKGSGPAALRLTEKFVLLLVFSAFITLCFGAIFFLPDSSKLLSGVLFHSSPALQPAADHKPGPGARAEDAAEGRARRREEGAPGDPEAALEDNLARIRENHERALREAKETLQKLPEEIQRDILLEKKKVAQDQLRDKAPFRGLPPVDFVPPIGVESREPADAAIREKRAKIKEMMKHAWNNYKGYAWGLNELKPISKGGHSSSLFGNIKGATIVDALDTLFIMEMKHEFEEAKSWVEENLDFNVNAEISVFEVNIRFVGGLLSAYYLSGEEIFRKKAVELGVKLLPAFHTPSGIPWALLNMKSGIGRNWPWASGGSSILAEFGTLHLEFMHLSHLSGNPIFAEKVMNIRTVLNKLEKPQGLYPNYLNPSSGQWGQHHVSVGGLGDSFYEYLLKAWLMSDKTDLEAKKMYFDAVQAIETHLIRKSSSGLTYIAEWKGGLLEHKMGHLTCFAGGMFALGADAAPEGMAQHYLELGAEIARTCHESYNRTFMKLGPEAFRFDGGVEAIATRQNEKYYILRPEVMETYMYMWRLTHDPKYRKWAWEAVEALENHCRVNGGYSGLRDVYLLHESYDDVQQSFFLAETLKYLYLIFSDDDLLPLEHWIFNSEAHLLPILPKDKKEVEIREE
Test [2] has as its target T1, Alpha-galactosidase A (Homo sapiens) (UniProt P06280).
T1 sequence (whole entry): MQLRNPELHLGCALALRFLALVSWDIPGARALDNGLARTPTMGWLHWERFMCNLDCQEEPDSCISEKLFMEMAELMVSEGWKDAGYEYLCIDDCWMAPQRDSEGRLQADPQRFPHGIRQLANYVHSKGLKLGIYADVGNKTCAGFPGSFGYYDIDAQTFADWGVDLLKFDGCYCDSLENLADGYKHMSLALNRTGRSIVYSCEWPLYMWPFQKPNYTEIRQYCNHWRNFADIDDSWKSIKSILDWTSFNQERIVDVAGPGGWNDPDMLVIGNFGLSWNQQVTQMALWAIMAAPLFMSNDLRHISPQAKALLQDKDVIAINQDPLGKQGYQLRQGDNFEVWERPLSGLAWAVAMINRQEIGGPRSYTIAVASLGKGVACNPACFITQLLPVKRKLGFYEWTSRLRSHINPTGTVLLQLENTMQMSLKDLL
In words: Inhibition of human alpha galactosidase.

The target in test [3] is T2, Neutral alpha-glucosidase AB (Homo sapiens) (UniProt Q14697).
T2 sequence (whole entry): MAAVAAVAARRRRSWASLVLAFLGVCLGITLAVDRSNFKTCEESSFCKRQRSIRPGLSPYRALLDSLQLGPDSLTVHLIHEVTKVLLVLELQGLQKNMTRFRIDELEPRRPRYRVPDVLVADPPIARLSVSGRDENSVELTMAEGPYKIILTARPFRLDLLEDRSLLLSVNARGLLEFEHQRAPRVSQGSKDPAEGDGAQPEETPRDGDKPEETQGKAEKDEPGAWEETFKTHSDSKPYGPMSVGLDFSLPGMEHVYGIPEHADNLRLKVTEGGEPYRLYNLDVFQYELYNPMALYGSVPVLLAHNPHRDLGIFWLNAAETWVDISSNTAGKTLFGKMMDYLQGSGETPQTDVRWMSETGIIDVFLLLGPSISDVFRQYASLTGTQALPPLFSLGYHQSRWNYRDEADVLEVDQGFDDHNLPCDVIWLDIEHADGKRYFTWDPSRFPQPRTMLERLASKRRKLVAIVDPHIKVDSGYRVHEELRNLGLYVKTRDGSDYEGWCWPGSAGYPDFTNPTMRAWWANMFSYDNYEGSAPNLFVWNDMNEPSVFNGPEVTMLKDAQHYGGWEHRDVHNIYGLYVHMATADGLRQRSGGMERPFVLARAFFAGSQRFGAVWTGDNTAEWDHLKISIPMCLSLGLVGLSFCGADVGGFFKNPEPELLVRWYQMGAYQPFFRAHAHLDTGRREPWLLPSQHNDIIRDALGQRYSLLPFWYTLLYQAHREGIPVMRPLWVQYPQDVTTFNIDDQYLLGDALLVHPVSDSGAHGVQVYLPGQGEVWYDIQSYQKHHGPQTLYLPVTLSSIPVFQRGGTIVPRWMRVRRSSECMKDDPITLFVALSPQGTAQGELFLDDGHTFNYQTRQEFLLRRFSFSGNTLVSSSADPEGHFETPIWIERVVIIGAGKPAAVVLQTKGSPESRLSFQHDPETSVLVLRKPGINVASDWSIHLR
As to the kind of experiment: Inhibition of human alpha glucosidase.

For test [4], the species on record is Homo sapiens. As to the kind of experiment: Inhibition of human beta glucosidase.
For test [5], the species on record is Homo sapiens. In words: Inhibition of human beta galactosidase.
Test [6] is described as follows: Enhancement of ConA-induced proliferation in Swiss Albino mouse splenocyte at 5 uM after 72 hrs by MTT assay relative to control. The format is functional.
Test [7] can be described thus: Enhancement of ConA-induced proliferation in Swiss Albino mouse splenocyte at 10 uM after 72 hrs by MTT assay relative to control. The format is functional. (In general: Formazan colour is commonly taken as a measure of viable cells.)
Test [8] can be described thus: Enhancement of ConA-induced proliferation in Swiss Albino mouse splenocyte at 20 uM after 72 hrs by MTT assay relative to control. It counts as functional.
The test system of test [9] is Splenocyte. In words: (§1) Enhancement of ConA-induced proliferation in Swiss Albino mouse splenocyte at 75 uM after 72 hrs by MTT assay relative to control. The format is functional.
A short description of test [10]: Enhancement of ConA-induced proliferation in Swiss Albino mouse splenocyte at 100 uM after 72 hrs by MTT assay relative to control. The format is functional.
Test [11] can be described thus: Reduction of ConA-induced IL4 secretion in Swiss Albino mouse splenocytes by ELISA relative to control. It counts as functional, Splenocyte. On the set-up: scale not given: the % may be the effect or the level left. In general terms: An ELISA detects its analyte on a solid surface through an enzyme-linked reagent.
Test [12] can be described thus: Enhancement of ConA-induced IL6 secretion in Swiss Albino mouse splenocytes by ELISA relative to control. It counts as functional, Splenocyte.
Test [13] can be described thus: Enhancement of ConA-induced IFN-gamma secretion in Swiss Albino mouse splenocytes by ELISA relative to control. The format is functional, Splenocyte.
Test [14] can be described thus: Enhancement of ConA-induced IL2 secretion in Swiss Albino mouse splenocytes by ELISA relative to control. The format is functional, Splenocyte.
The nature of test [15]: as §1. It counts as functional.

Take `OC[C@H]1CCN2C[C@H](O)[C@@H](O)[C@H](O)[C@@H]12`: the outcome in test [1], in [2], in test [3], in test [4], in test [5] and in test [9] was inactive. In addition, the Activity in test [6] amounted to 161%; in test [7] it was 109%; in test [8], 40%; in [10], 27%; in test [11], 20.6%; in test [13], 40.5%. Besides, the Activity in [14] came out at 6.6%. Also, the Ratio in test [12] is on record as >5.5.
As for `OC[C@@H]1CCN2C[C@H](O)[C@@H](O)[C@H](O)[C@@H]12`, the outcome in test [1], in test [2], in [3], in test [4] and in test [5] was inactive. Moreover, the Activity was 19% in test [6]; 61% in [7]; 69% in test [8]; 41% in [15]; 31% in test [10]; 47% in test [11]. Also, the values for the Activity in [13] and in test [14] were 9.5% and 3.3%, respectively. Further, the Ratio in test [12] was >9.
